The source of these data is paper PMC3775607 (Chembiochem : a European journal of chemical biology, 2012).

pIC50: −log10 of the molar value.

In experiment [1] the target is T1, p38α (Mus musculus, UniProt P47811). The experiment is described as follows: competition with covalent DRS probe […] at […], in-gel fluorescence. The experiment is classed as binding.
Experiment [2] deals with T1, p38α. As to the kind of experiment: radiometric kinase assay with GST-ATF2. The format is biochemical.

T1 sequence (P47811 2-360): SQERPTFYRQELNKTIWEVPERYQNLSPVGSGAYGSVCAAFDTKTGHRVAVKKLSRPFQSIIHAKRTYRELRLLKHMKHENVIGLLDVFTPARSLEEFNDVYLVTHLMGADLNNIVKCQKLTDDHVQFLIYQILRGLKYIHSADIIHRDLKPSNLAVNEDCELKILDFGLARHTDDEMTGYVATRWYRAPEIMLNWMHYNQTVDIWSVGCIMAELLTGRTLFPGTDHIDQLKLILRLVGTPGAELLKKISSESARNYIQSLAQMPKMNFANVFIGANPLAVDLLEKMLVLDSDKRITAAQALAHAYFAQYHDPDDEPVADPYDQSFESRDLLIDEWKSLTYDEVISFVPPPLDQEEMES

For the molecule `O=C(/C=C/c1ccc(O)c(O)c1)OCCc1ccccc1` [CAPE, caffeic acid phenethyl ester], the “competition with covalent DRS probe 3 at 200 μM, in-gel fluorescence” value at p38α [1] is listed as “rooperol shows the strongest inhibition, followed closely by the honey bee propolis-derived caffeic acid phenethyl ester (CAPE”.

Take `Oc1ccc(C#CC/C=C/c2ccc(O)c(O)c2)cc1O` [rooperol]: the pIC50 on p38α [2] was 4.73.

The pIC50 is the IC50 on a negative log10 scale, so that one unit is a factor of ten. Read a low pIC50 as a large IC50.
